From patent US20230365571A1, “COMPOUNDS AND COMPOSITIONS AS Sppl2a INHIBITORS” (Novartis AG, priority 2020, published 2023)

Assays:
human SPPL2a [1] = molecular target: T1, human SPPL2a (Homo sapiens, UniProt Q8TCT8); assay: Sppl2a TL (translocation) imaging assay in U-2 OS cells; assay type: cell-based; set-up: expressed in transfected cells; settings: U-2 OS cells expressing human SPPL2a and EGFP-TNFα(aa1-76) NTF substrate; 24 h
T1 sequence (Q8TCT8 26-520): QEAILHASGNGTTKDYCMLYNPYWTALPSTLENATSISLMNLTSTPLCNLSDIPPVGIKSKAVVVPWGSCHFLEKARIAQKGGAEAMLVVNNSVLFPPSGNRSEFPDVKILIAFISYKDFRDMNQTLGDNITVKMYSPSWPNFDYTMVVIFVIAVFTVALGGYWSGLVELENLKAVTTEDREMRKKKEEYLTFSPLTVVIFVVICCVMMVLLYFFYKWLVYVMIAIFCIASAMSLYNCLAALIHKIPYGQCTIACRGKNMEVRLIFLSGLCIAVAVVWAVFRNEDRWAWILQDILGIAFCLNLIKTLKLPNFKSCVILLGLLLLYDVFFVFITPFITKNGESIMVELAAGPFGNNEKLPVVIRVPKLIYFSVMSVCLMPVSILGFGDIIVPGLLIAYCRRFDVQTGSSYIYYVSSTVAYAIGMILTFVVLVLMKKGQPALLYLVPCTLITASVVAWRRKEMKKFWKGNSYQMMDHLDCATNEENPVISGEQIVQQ
Experimental: SPPL2a, TL in U-2 OS Cells. Stable U-2 OS cell lines expressing human SPPL2a constitutively and a EGFP-labeled TNFα(aa1-76) NTF substrate under a doxycycline-regulated promoter were used for the imaging assays. Cells were seeded at 3000 cells/30 μL/384-well in DMEM/GlutaMax™-I (Invitrogen) supplemented with tetracycline-free 10% FBS (Amimed) and incubated at 37° C., 5% CO2 for 3-4 h. Subsequently, 3.3 μL of inhibitors, prediluted in doxycycline-containing medium for 11-point concentration-response curves, were added to each well using a CyBi well liquid handling device (Cybio AG, Jena, Germany) to result in final inhibitor concentrations ranging from 100 μM to 1 nM (final DMSO concentration 0.9% (v/v)) and 5 μg/mL doxycycline). The cells were incubated with inhibitor at 37° C., 5% CO2 for 24 h. Thereafter cell were fixed in 4% PFA/PBS and in parallel, nuclei were stained with Hoechst (Invitrogen) 1:5000 in PBS for 30 min. The plates were imaged using a Cellomics ArrayScan VTI HCS reader with 10×/0.3NA objective (Thermo Fisher Scientific, USA). Six images per well were acquired. Images for the EGFP signal (Ex395, Em509) and the Hoechst nuclear dye (Ex350, Em425) were acquired simultaneously with image analysis using the “Nuclear Translocation” assay algorithm of the Cellomics ArrayScan software. Nuclei were detected based on the Hoechst staining, the nuclear mask was transferred to the EGFP channel, and a 4 pixel wide cytoplasm ring region was defined around the nucleus. The intensity of the EGFP signal was measured both in the nuclear and in the cytoplasm ring region of each individual cell (in general 800-1000 individual cells were analyzed per well), and the difference of the average nuclear versus average cytoplasmic intensity of the EGFP signal was calculated (“CircRingAvgIntenDiffCh2”=“CircAvgIntenCh2”−“RingAvgIntenCh2”). Additionally the number of cells were acquired (feature termed “ValidCellCount”) and used to calculate cell toxicity (CC50). Percent inhibition was calculated relative to the positive (0.5 μM LY-411,575=100% inhibition) and negative (DMSO=0% inhibition) controls. The IC50 value was calculated from the plot of percentage of inhibition vs inhibitor concentration using nonlinear regression analysis software, e.g., Origin (OriginLab Corp.).

human SPPL2a [2] = molecular target: T1, human SPPL2a; assay: Sppl2a RGA (reporter gene assay) in HEK293 cells; assay type: cell-based; set-up: expressed in transfected cells; host or cells: HEK293 (transient); settings: NT-TNF-VP16-Gal4 substrate, Gal4-luciferase reporter, 24 h
Source text: Sppl2a RGA (Reporter Gene Assay):
Sppl2a is an intramembrane aspartyl protease with similarities to presenilin, the active subunit of the γ-secretase complex. The assay is based on the coupling of the proteolytic degradation of a membrane bound synthetic substrate (VP16-Gal4 fusion protein with the N-terminal domain of TNF alpha), which migrates to the nucleus upon cleavage, with the Gal4 driven expression of luciferase. Inhibition of Sppl2a results in a reduction of nuclear VP16-Gal4 activator and therefore in a reduction of the production of luciferase. The luciferase dependent-luminescence is plotted against the concentrations of compound to generate a dose response curve, which allows the calculation of the IC50 value.
DNA vectors encoding human Sppl2a, NT-TNF-VP16-Gal4 and a Gal4-luciferase reporter were transiently transfected in HEK293 cells. In a typical experiment 5 μg plasmid for SPPL2a, 10 μg plasmid encoding the reporter Gal4-luciferase and 20 μg plasmid encoding the substrate NT-TF-VP16-Gal4 were mixed together. The DNA mixture was combined with 107 μl FuGENE® (Promega), 735 μl Opti-MEM® (Life Technologies) and incubated for 5 minutes at RT. To this mixture 20 mL of concentrated HEK293 cells were added and thoroughly mixed. The cell suspension was distributed to a white solid 384 well plate. Within 5 hours, 50 nl of compound in DMSO was stamped into the wells via pintool. The plate was incubated for 24 h at 37° C., 5% CO2 in a humidified incubator, before the addition of 25 μl Bright Glo. After incubation at RT for 5 min, the plate was transferred to a luminometer and the luminescence was measured. The IC50 was determined by plotting compound concentration vs. normalized luminescence values.

SMILES	IC50 (human SPPL2a [1])	IC50 (human SPPL2a [2])
Cc1ccc(-c2cc(NC(=O)C[C@@H](C)C(=O)N[C@@H]3C(=O)N4CCCN4Cc4ccccc43)n(C)n2)cn1 [Example 105, (R)-2-Methyl-N^4-(1-methyl-3-(6-methylpyridin-3-yl)-1H-pyrazol-5-yl)-N^1-((S)-11-oxo-2,3,10,11-tetrahydro-1H,5H-benzo[d]pyrazolo [1,2-a][1,2]diazepin-10-yl)succinamide]	18 nM	23 nM
C[C@H](CC(=O)Nc1cn(-c2ccc(C(F)(F)F)nc2)nc1Cl)C(=O)N[C@@H]1C(=O)N2CCCN2Cc2ccccc21 [Example 88, (R)-N^4-(3-Chloro-1-(6-(trifluoromethyl)pyridin-3-yl)-1H-pyrazol-4-yl)-2-methyl-N^1-((S)-11-oxo-2,3,10,11-tetrahydro-1H,5H-benzo[d]pyrazolo [1,2-a][1,2]diazepin-10-yl)succinamide]	10 nM	7 nM
Cc1nc(Cc2ccccc2)sc1C(=O)NC[C@@H](C)C(=O)N[C@@H]1C(=O)N2CCCN2Cc2ccccc21 [Example 58, 2-Benzyl-4-methyl-N-((R)-2-methyl-3-oxo-3-(((S)-11-oxo-2,3,10,11-tetrahydro-1H,5H-benzo[d]pyrazolo [1,2-a][1,2]diazepin-10-yl)amino)propyl) thiazole-5-carboxamide]	373 nM	194 nM
Cc1nc(C2=CCOCC2)sc1C(=O)NC[C@H](C(=O)N[C@@H]1C(=O)N2CCCN2Cc2ccccc21)C(F)(F)F [Example 44, 2-(3,6-Dihydro-2H-pyran-4-yl)-4-methyl-N-((R)-3,3,3-trifluoro-2-(((S)-11-oxo-2,3,10,11-tetrahydro-1H,5H-benzo[d]pyrazolo [1,2-a][1,2]diazepin-10-yl)carbamoyl)pro-pyl)thiazole-5-carboxamide]	67 nM	27 nM
COc1ccc(-c2cc(NC(=O)C[C@@H](C)C(=O)N[C@@H]3C(=O)N4CCCN4Cc4ccccc43)n(C)n2)cn1 [Example 97, (R)-N^4-(3-(6-Methoxypyridin-3-yl)-1-methyl-1H-pyrazol-5-yl)-2-methyl-N^1-((S)-11-oxo-2,3,10,11-tetrahydro-1H,5H-benzo[d]pyrazolo [1,2-a][1,2]diazepin-10-yl)succinamide]	13 nM	15 nM
CC[C@H](CNC(=O)c1sc(-c2cc(C)no2)nc1C)C(=O)N[C@@H]1C(=O)N2CCCN2Cc2ccccc21 [Example 20, 4-Methyl-2-(3-methylisoxazol-5-yl)-N-((R)-2-(((S)-11-oxo-2,3,10,11-tetrahydro-1H,5H-benzo[d]pyrazolo [1,2-a][1,2]diazepin-10-yl)carbamoyl)butyl) thiazole-5-carboxamide]	12 nM	220 nM
Cc1c(F)ccc2nc(C[C@@H](C)C(=O)N[C@@H]3C(=O)N4CCCN4Cc4ccccc43)[nH]c12 [Example 116, (R)-3-(6-fluoro-7-methyl-1H-benzo[d]imidazol-2-yl)-2-methyl-N-((S)-11-oxo-2,3,10,11-tetrahydro-1H,5H-benzo[d]pyrazolo[1,2-a][1,2]diazepin-10-yl)propanamide]	116 nM	13 nM
Cc1cnoc1C(=O)NC[C@H](C(=O)N[C@@H]1C(=O)N2CCCN2C(=O)c2ccccc21)C(F)(F)F [Example 2, N—((R)-2-(((S)-5,11-dioxo-2,3,10,11-tetrahydro-1H,5H-benzo[d]pyrazolo[1,2-a][1,2]diazepin-10-yl)carbamoyl)-3,3,3-trifluoropropyl)-4-methylisoxazole-5-carboxamide]	450 nM	180 nM
Cc1ccn(C)c1C(=O)NC[C@@H](C)C(=O)N[C@@H]1C(=O)N2CCCN2Cc2ccccc21 [Example 60, 1,3-dimethyl-N-((R)-2-methyl-3-oxo-3-(((S)-11-oxo-2,3,10,11-tetrahydro-1H,5H-benzo[d]pyrazolo [1,2-a][1,2]diazepin-10-yl)amino)propyl)-1H-pyrrole-2-carboxamide]	580 nM	277 nM
CCC[C@H](Cc1nc2cc(F)cc(C)c2[nH]1)C(=O)N[C@@H]1C(=O)N2CCCN2Cc2ccccc21 [Example 119, (R)-2-((5-fluoro-7-methyl-1H-benzo[d]imidazol-2-yl)methyl)-N-((S)-11-oxo-2,3,10,11-tetrahydro-1H,5H-benzo[d]pyrazolo[1,2-a][1,2]diazepin-10-yl)pentanamide]	185 nM	19 nM
O=C(C[C@H](C(=O)N[C@@H]1C(=O)N2CCCN2C(=O)c2ccccc21)C1CC1)Nc1sc(-c2ccc(C(F)(F)F)nc2)nc1Cl [Example 107, (S)-N^4-(4-Chloro-2-(6-(trifluoromethyl)pyridin-3-yl)thiazol-5-yl)-2-cyclopropyl-N^1-((S)-5,11-dioxo-2,3,10,11-tetrahydro-1H,5H-benzo[d]pyrazolo [1,2-a][1,2]diazepin-10-yl)succinamide]	15 nM	11 nM
CCc1cc(-c2cc(NC(=O)C[C@@H](C)C(=O)N[C@@H]3C(=O)N4CCCN4Cc4ccccc43)n(C)n2)no1 [Example 81, (R)-N^4-(3-(5-Ethylisoxazol-3-yl)-1-methyl-1H-pyrazol-5-yl)-2-methyl-N^1-((S)-11-oxo-2,3,10,11-tetrahydro-1H,5H-benzo[d]pyrazolo [1,2-a][1,2]diazepin-10-yl)succinamide]	8 nM	5 nM
C[C@H](Cc1nc2cccc(Br)c2[nH]1)C(=O)N[C@@H]1C(=O)N2CCCN2Cc2ccccc21 [Example 113, (R)-3-(7-bromo-1H-benzo[d]imidazol-2-yl)-2-methyl-N-((S)-11-oxo-2,3,10,11-tetrahydro-1H,5H-benzo[d]pyrazolo[1,2-a][1,2]diazepin-10-yl)propanamide]	180 nM	42 nM
Cc1nc(-c2ccc(C(F)(F)F)nc2)sc1C(=O)NC[C@H](C(=O)N[C@@H]1C(=O)N2CCCN2C(=O)c2ccccc21)C(F)(F)F [Example 38, N-((R)-2-(((S)-5,11-Dioxo-2,3,10,11-tetrahydro-1H,5H-benzo[d]pyrazolo [1,2-a][1,2]diazepin-10-yl)carbamoyl)-3,3,3-trifluoropropyl)-4-methyl-2-(6-(trifluoromethyl)pyridin-3-yl)thiazole-5-carboxamide]	54 nM	43 nM
